In patent publication US20040097435A1, “Method of treating parasitic infection” (Pfizer Inc, priority 2000, published 2004):
Read-outs that look alike come from different tables or passages of the source.

What was measured:
[1] = system: ectoparasites such as fleas; settings: companion animals; cited from earlier work
[2] = 6 mg/kg topical at monthly intervals during pregnancy and post-partum, female dogs
Ctenocephalides felis [3] = system: Ctenocephalides felis
Procedure: (§1) Thirty-eight adult females were allocated randomly to one of two treatments: placebo (negative control, 19 animals), or selamectin (19 animals). The selamectin, was formulated as: […]
(§2) Doses providing 6 mg/kg of selamectin were administered topically in a single spot on the skin of each female's back at the base of the neck in front of the shoulder blades on days 0 and 30 to individually-housed females and to females group-housed for mating on days 0, 30, 60 and 90 as required until kittening. All females were treated on post partum days 10 and 38. Treatments were not administered to kittens. […]. Study day 0 was defined individually for each adult female as the day on which the first treatment with either placebo or selamectin was administered and post partum day 1 was defined as the day following the day of delivery of the last kitten in the litter.

Ctenocephalides felis [4] = system: Ctenocephalides felis; remark: listed apart in the source
Procedure: (§3) Twenty-one adult females were allocated randomly to one of two treatments: placebo (negative control, 11 animals), or selamectin (10 animals). The selamectin, was formulated as: […]
(§4) Doses providing 6 mg/kg of selamectin were administered topically approximately 40 days and 10 days pre-partum and 10 days and 38 days post-partum in a single spot on the skin of each female's back at the base of the neck in front of the shoulder blades. Treatments were not administered to puppies. Post-partum day 1 was defined individually for each adult female as the day following the day of delivery of the last puppy in the litter.
(§5) Following observations of signs of pro-oestrus, the females were moved into randomly allocated carpeted pens in a building where the environment was suitable for the rapid completion of the flea reproductive cycle.
(§6) Each adult female was infested with 100 viable unfed adult C. felis approximately 60 days and 46 days pre-partum, and with 10 viable unfed adult fleas approximately 39, 33, 26, 19, 14 and 5 days pre-partum; an additional infestation was performed 7 days later if the female had not whelped. Each lactating female was also infested with 10 fleas on post-partum days 6, 15, 21, 28, 34 and 42. Comb counts of the number of viable adult fleas present on each female were made on approximately pre-partum days 41 and 11, and on postpartum days 9, 37 and 45. Comb counts of the fleas present on each puppy were performed on post-partum days 15, 24, 34, 42 and 45. After counting, up to 50 fleas per pregnant/lactating female and up to five fleas per puppy were replaced on each dog. For welfare reasons, if any dog was scratching or grooming excessively, additional unscheduled comb counts were performed on that dog and if necessary, the carpet was partially or entirely replaced to reduce the environmental flea challenge. Faecal egg counts for T. canis were performed for pregnant/lactating females on approximately pre-partum day 2 and on post-partum days 9, 17, 24 and 45, and for puppies on post-partum days 24 and 34.

Toxocara canis [5] = settings: 6 mg/kg topical to dam; for geometric mean faecal egg count: puppies born to treated females
Procedure: as §3, §4, §5, §6

[6] = 6 mg/kg topical at monthly intervals during pregnancy and post partum, female cats
Toxocara canis [7] = settings: 6 mg/kg topical to dam
Procedure: as §3, §4, §5
On post-partum day 45, each puppy was euthanised, its gastro-intestinal tract was removed and intestinal larval (L4) and adult T. canis were enumerated.

Toxocara cati = settings: post partum day 49
Procedure: as §1, §2
Each adult female was inoculated once with approximately 1000 embryonated T. cati ova, per os, between 150 and 31 days prior to commencing the study and again between 5 and 21 days before kittening.
On post partum day 49, each kitten was euthanased, its gastrointestinal tract was removed and intestinal larvae (L4) and adult T. cati were enumerated.

intestinal nematode = settings: administered to pregnant bitch from pregnancy past parturition; Veterinary Parasitology, 1999, 85, 305; cited from earlier work
[8] = kittens at necropsy, 6 mg/kg topical to dam

Compound	activity against ectoparasites such as fleas [1]	safety of treatment [2]	females or their kittens requiring additional flea control measures (Ctenocephalides felis [3]; after the first treatment on day 0, to maintain flea burdens within acceptable limits)	reduction in mean flea comb counts compared with kittens born to placebo-treated females (Ctenocephalides felis [3]; kittens, all counting days (post partum days 15, 24, 34, 42 and 49)) [%]	geometric mean flea comb count (Ctenocephalides felis [3]; kittens, all counting days (post partum days 15, 24, 34, 42 and 49), 6 mg/kg topical to dam)	reduction in mean flea comb counts compared with puppies born to placebo-treated females (Ctenocephalides felis [4]; puppies, all counting days (post-partum days 15, 24, 34, 42 and 45)) [%]	geometric mean flea comb count (Ctenocephalides felis [4]; puppies, all counting days (post-partum days 15, 24, 34, 42 and 45), 6 mg/kg topical to dam)	females or their puppies requiring additional flea control measures (Ctenocephalides felis [4]; to maintain flea burdens within acceptable limits)	reduction in mean faecal egg count compared with puppies born to placebo-treated females (Toxocara canis [5]; post-partum day 24) [%]	reduction in mean faecal egg count compared with puppies born to placebo-treated females (Toxocara canis [5]; post-partum day 34) [%]	geometric mean faecal egg count (Toxocara canis [5]; post-partum day 24) [epg]	geometric mean faecal egg count (Toxocara canis [5]; post-partum day 34) [epg]	safety of treatment [6]	reduction in mean adult T. canis count compared with puppies born to placebo-treated females (Toxocara canis [7]; necropsy post partum day 45) [%]	geometric mean adult T. canis worm count (Toxocara canis [7]; puppies at necropsy, post-partum day 45)	geometric mean L4 T. cati count (Toxocara cati; [8])	geometric mean adult T. cati count (Toxocara cati; [8])	reduction in mean adult T. cati count compared with kittens born to placebo-treated females (Toxocara cati) [%]	reduction in mean fourth stage larvae (L4) T. cati count compared with kittens born to placebo-treated females (Toxocara cati) [%]	prevention of intestinal nematode infections in pups (intestinal nematode)
CO[C@H]1C[C@H](O[C@H]2[C@H](C)O[C@@H](O[C@@H]3/C(C)=C/C[C@@H]4C[C@@H](C[C@]5(C=C[C@H](C)[C@@H](C6CCCCC6)O5)O4)OC(=O)[C@@H]4C=C(C)[C@@H](O)[C@H]5OC/C(=C\C=C\[C@@H]3C)[C@]54O)C[C@@H]2OC)O[C@@H](C)[C@@H]1O [doramectin]	poor activity	–	–	–	–	–	–	–	–	–	–	–	–	–	–	–	–	–	–	–
CO[C@H]1C[C@H](O[C@@H]2/C(C)=C/C[C@@H]3C[C@@H](C[C@]4(CC[C@H](C)[C@@H](C5CCCCC5)O4)O3)OC(=O)[C@@H]3C=C(C)/C(=N/O)[C@H]4OC/C(=C\C=C\[C@@H]2C)[C@]43O)O[C@@H](C)[C@@H]1O [selamectin]	–	safe	none	100	zero	100.0	0	None	96.8	96.1	0.8	2.1	safe	98.2	0.1	0.0	0.0	100	100	–
ivermectin	poor activity	–	–	–	–	–	–	–	–	–	–	–	–	–	–	–	–	–	–	can prevent intestinal nematode infections in pups
